Source: US12129238B2, “Crystalline form of propoxazepam, the method of its making and use as medicinal agent” (priority 2018, dated 2024)

How the values were obtained:
Format in all cases: in vivo
rats = assay: Model of thermal nociception (tail flick test) on rats; conditions: rat tail-flick, latency 2 hours after administration, dispersed in saline with Tween 80
Experimental: Antinociceptive (analgesic) activity was evaluated on a rat tail “tail-flick” model using a focused light beam on rats. Latency time was determined by tail pulling away from the beam source, expressed in seconds. Animals were randomized with respect to the initial value of the latent period, with index from 4 to 12 seconds. The magnitude of the antinociceptive effect was indicated by the increasing of the length of the latent period (pain sensitivity threshold, PST). The initial indices of the PST and its changes 2 hours after the administration of the test compound were compared. The calculation of ED50 (the average effective dose of analgesic activity in this model for rats) was carried out using the least squares method.
Three samples of compound (I) were prepared and used in the ‘tail-flick’ test: • The first sample is prepared using the sample of Comparative Example 1, i.e. Form I, in its natural coarse crystalline state. In particular, the coarse crystalline sample of Comparative Example 1 is dispersed in a saline solution and stabilized with Tween 80). The crystalline structure (Form I) remains unchanged. • The second sample was prepared by micronizing (mechanically grinding) the coarse crystalline sample of Comparative Example 1, in order to prepare a sample of Form I having a smaller average particle size. In particular, the micronized sample is dispersed in a saline solution and stabilized with Tween 80). The crystalline structure (Form I) remains unchanged. • The third sample is a dispersed sample of Inventive Example 1, i.e. compound (I) in crystalline Form II. In particular, a sample of Inventive Example 1 is dispersed in a saline solution and stabilized with Tween 80). The crystalline structure (Form II) remains unchanged. The third sample has a similar average particle size to the second sample for a side-by-side comparison.

mice [1] = assay: Model of acetic acid-induced pain (cramps) on mice; conditions: 0.75% acetic acid i.p. 2 hours after test compound, cramps counted 1st to 20th minute
Experimental: To reproduce acute visceral and somatic deep pain (nociceptive pain), the method of “acetic acid-induced pain (cramps)” was used in mice. The mice received a 0.75% solution of acetic acid intraperitoneally (at a dose of 0.1 ml/10 g of body weight), 2 hours after the administration of the test compounds. The number of cramps was counted from the first to the 20th minute (inclusive) after modeling the pathological state. The calculation of ED50 (the average effective dose of analgesic activity in this model for mice) was carried out using the least squares method.
Two samples of compound (I) were prepared and used in the ‘tail-flick’ test: • The first sample is a dispersed sample of Form I. This was prepared by adding a hot (65° C.) saturated solution of Comparative Example 1 (Form I) in ethyl alcohol to water at room temperature (about 20° C.) and atmospheric pressure (about 101.325 KPa). Dispersed Form I has a particle size (D(50)) of around 29 μm. • The second sample is a dispersed sample of Inventive Example 1, i.e. compound (I) in crystalline Form II. This sample is prepared by was dispersing Inventive Example 1 in a saline solution stabilized with Tween-80. The crystalline structure remains unchanged. Dispersed Form II has a particle size (D(50)) of around 24.3 μm.

[2] = Determination of the mean lethal dose (LD50), oral administration to mice; conditions: mouse, in vivo, po, stabilized suspension in isotonic sodium chloride solution, 14 days observation
Excerpt: (§1) The preliminary assignment of a substance to a certain toxicity class is based on an indicator that quantitatively characterizes the acute toxicity of the compound—the dose of the substance that causes a lethal effect in 50% of the population (LD50). Determination of this indicator in one of the types of experimental animals allows to extrapolate it for other species and justify the dose limits for the first phase of clinical trials.
(§2) To calculate the average dose, mortality/survival rates of the animals by the end of the observation period were used.

mice [3] = assay: as above; conditions: stabilized suspension in isotonic sodium chloride solution, 14 days observation
Excerpt: as §1, §2

| Structure (SMILES) | ED50 (Average effective dose (50%)) (rats; listed as Form I (coarse crystalline)) [mg/kg] | ED50 (Average effective dose (50%)) (rats; listed as Form I (micronized)) [mg/kg] | ED50 (Average effective dose (50%)) (mice [1]; listed as Dispersed Form I) [mg/kg] | LD50 at 14 days [2] [mg/kg] | ED50 (Average effective dose (50%)) (rats) [mg/kg] | ED50 (Average effective dose (50%)) (mice [1]; listed as Dispersed Form II) [mg/kg] | LD50 (mean lethal dose) (mice [3]) [mg/kg] |
| --- | --- | --- | --- | --- | --- | --- | --- |
| CCCOC1N=C(c2ccccc2Cl)c2cc(Br)ccc2NC1=O (stereo not shown) [Form I, 7-Bromo-3-propoxy-5-(2-chlorophenyl)-1,3-dihydrobenzo-[e]-[1,4]-diazepin-2-one] | 1.82 | 1.06 | 1.87 | 1120 ± 190 | – | – | – |
| CCCOC1N=C(c2ccccc2Cl)c2cc(Br)ccc2NC1=O (stereo not shown) [Form II, 7-Bromo-3-propoxy-5-(2-chlorophenyl)-1,3-dihydrobenzo-[e]-[1,4]-diazepin-2-one] | – | – | – | – | 0.17 | 0.89 | 1475 ± 402 |
